Measured values from the NIST ThermoML archive (doi:10.1016/j.tca.2018.01.023).
± gives the expanded uncertainty stated by the source.

Assays:
[1] = Molar enthalpy of transition or fusion; settings: Crystal; DSC
[2] = Crystal; for molar entropy: 101.33 kPa, Small sample (50 mg) DSC

[Ca+2].[O]=[Mo](=[O])([O-])[O-] [calcium molybdate(VI)]
Settings | Molar enthalpy of transition or fusion [kcal/mol]
[1] | 24.4 ± 2.87

[2]
Settings | Normal melting temperature [°C] | molar entropy [J/K/mol]
298.15 K | – | 122 ± 7.8
310 K | – | 126.5 ± 8.1
315 K | – | 128.4 ± 8.2
320 K | – | 130.3 ± 8.3
325 K | – | 132.1 ± 8.4
330 K | – | 133.9 ± 8.5
335 K | – | 135.7 ± 8.6
340 K | – | 137.5 ± 8.8
345 K | – | 139.3 ± 8.9
350 K | – | 141 ± 9
355 K | – | 142.8 ± 9.1
360 K | – | 144.5 ± 9.2
365 K | – | 146.2 ± 9.3
370 K | – | 147.9 ± 9.4
375 K | – | 149.6 ± 9.5
380 K | – | 151.2 ± 9.6
385 K | – | 152.9 ± 9.7
390 K | – | 154.5 ± 9.8
395 K | – | 156.1 ± 9.9
400 K | – | 157.7 ± 10
410 K | – | 160.9 ± 10
420 K | – | 164 ± 10
430 K | – | 167.1 ± 11
440 K | – | 170.1 ± 11
450 K | – | 173.1 ± 11
460 K | – | 176 ± 11
470 K | – | 178.8 ± 11
480 K | – | 181.7 ± 12
490 K | – | 184.5 ± 12
500 K | – | 187.2 ± 12
510 K | – | 189.9 ± 12
520 K | – | 192.6 ± 12
530 K | – | 195.2 ± 12
540 K | – | 197.8 ± 13
550 K | – | 200.3 ± 13
560 K | – | 202.8 ± 13
570 K | – | 205.3 ± 13
580 K | – | 207.7 ± 13
590 K | – | 210.1 ± 13
600 K | – | 212.5 ± 14
620 K | – | 217.2 ± 14
640 K | – | 221.7 ± 14
660 K | – | 226.1 ± 14
680 K | – | 230.4 ± 15
700 K | – | 234.6 ± 15
720 K | – | 238.7 ± 15
740 K | – | 242.8 ± 16
760 K | – | 246.7 ± 16
766 K | – | 247.8 ± 16
DTA | 1477 ± 8 | –
